Earlier results in PMC10715210, “Colistin plasma concentrations are not associated with better clinical outcomes in patients with pneumonia caused by extremely drug-resistant Pseudomonas aeruginosa” (Microbiology Spectrum, 2023).
Positions of bridges follow the written chain, without caps; N, C: chain ends. Non-standard residues stand in square brackets, D forms with d. Residues, ends and D or L forms follow the SMILES beside them. *: point of attachment. X1 = CC[C@H](C)CCCCC(=O)*; Dab = NCC[C@H](N)C(=O)O

Details: samples drawn at 45 min after the start of infusion; loading dose 9 million IU CMS then 4.5 million IU every 12 hours; cited from earlier work
Protocol: ([10]). […] Concentrations of CMS and formed colistin in plasma were measured as reported previously ([35], [36]). The limits of quantification for colistin and CMS in plasma were 0.20 and 0.50 mg/L, respectively. Based on the almost flat plasma concentration-time profiles of formed colistin at st ...

Compound: CC[C@H](C)CCCCC(=O)N[C@@H](CCN)C(=O)N[C@H](C(=O)N[C@@H](CCN)C(=O)N[C@H]1CCNC(=O)[C@H]([C@@H](C)O)NC(=O)[C@H](CCN)NC(=O)[C@H](CCN)NC(=O)[C@H](CC(C)C)NC(=O)[C@@H](CC(C)C)NC(=O)[C@H](CCN)NC1=O)[C@@H](C)O [colistin] (X1-[Dab]T[Dab][Dab][Dab][dL]L[Dab][Dab]T; lactam 4-C)
- Colistin plasma concentration: 0.44 (0.14–1.59) mg/L
